Target: BiP NBD (Homo sapiens, UniProt P11021)
Assay: Global kinetic fit (MCMC) of four NMR data sets (E1+E2, E1 only, E2 only, no recycling): functional cycle kinetic parameters
Type: biochemical
Design: His6 (N, cleaved yes); made in house; host or cells: E. coli BL21-(DE3)-Lemo, pET28a vector
From the text: It comprises 5 different states that are connected by […] reaction equations of first and second order. We consider ATP hydrolysis an irreversible reaction without backreaction. The other pathways are reversible dissociation/association reactions, arbitrarily labeled 1–5. The microscopic equations (elementary reactions) for these 11 reactions are given by:1 NBD^ATPkcat→NBD^ADP⋅Pi 2 NBD^ATPkoff1⇌kon1NBD^apo+ATP 3 NBD^ADPkoff2⇌kon2NBD^apo+ADP 4 NBD^Pikoff3⇌kon3NBD^apo+Pi 5 NBD^ADP⋅Pikoff4⇌kon4NBD^ADP+Pi 6 NBD^ADP⋅Pikoff5⇌kon5NBD^Pi+ADP With the forward and backward kinetic rate constants connected by thermodynamic equilibrium dissociation constants given by7 koffi/koni=KDifori=1,…,5 For each of the 5 states, a differential equation describing the conservation of mass can be derived:8 d/dtNBD^apo=+koff1NBD^ATP+koff2NBD^ADP+koff3NBD^Pi−kon1NBD^apoATP−kon2NBD^apoADP−kon3NBD^apoPi 9 d/dt[NBD^ATP]=+kon1NBD^apoATP−koff1NBD^ATP−kcatNBD^ATP 10 d/dtNBD^ADP⋅Pi=+kcatNBD^ATP+kon4NBD^ADPPi+kon5NBD^PiADP−koff4NBD^ADP⋅Pi−koff5NBD^ADP⋅Pi 11 d/dtNBD^ADP=+koff4NBD^ADP⋅Pi+kon2NBD^apoADP−koff2NBD^ADP−kon4NBD^ADPPi 12 d/dtNBD^Pi=+koff5NBD^ADP⋅Pi+kon3NBD^apoPi−koff3NBD^Pi−kon5NBD^PiADP Furthermore, we have the total amount13 NBD^apo+NBD^ATP+NBD^ADP+NBD^ADP⋅Pi+NBD^Pi=NBD0 These equations can be used for numerical fitting of steady-state and non-steady-state experimental data.
The experimental data of the BiP NBD in-cyclo experiments were fitted using standard reaction kinetics. Free variables were the kon and koff rates for the five reversible reaction and the catalytic rate constant (kcat) for the irreversible ATP hydrolysis step (See theory section). The initial values for kcat , koff2 , koff4 and koff5 were set to the value determined experimentally with in-cyclo experiment. The initial value for koff3 was taken from the EXSY experiment and the initial range for koff1 and KD1 were taken from the literature. […] The prior distributions were defined based on the average state occupancy resolved from the in-cyclo experiment: tNBD·ADP, tNBD, tNBD·ADP·Pi and tNBD·Pi. Numerical integration of the corresponding differential equations for the reaction scheme (described in Fig. 2a) was performed using a custom Python module (Kinetic).
To fully determine all kinetic parameters, the data fitting procedure was conducted as a global fit of four independent experimental datasets: (i) the in-cyclo experiment with ATP regeneration and phosphate removal, (ii) ATP regeneration only, (iii) single batch experiments starting from pure ATP with the phosphate removal system, and (iv) single batch experiments starting from pure ATP.
Fitting of the functional cycle kinetic parameters. a-d, Global fit of the experimental data presented in the manuscript E1 +E2 (a), E1 (b), E2 (c), no recycling system (d). Data points are shown as circles NBD·ADP (blue), NBD·ADP·PI (dark blue) and NBD·ATP (red) (left) and pyruvate (grey), glucose-1-P (lavender), ATP (red) and ADP (blue) (right). The fit of the data is shown as lines in the same color as the data points. Data points and standard deviation for three independent experiments. e, Numerical stability of the global fitting of the experimental data.

[1] = Supplementary Fig 10a, time 5 min
[2] = Supplementary Fig 10a, time 11 min
[3] = Supplementary Fig 10a, time 17 min
[4] = Supplementary Fig 10a, time 23 min
[5] = Supplementary Fig 10a, time 29 min
[6] = Supplementary Fig 10a, time 35 min
[7] = Supplementary Fig 10a, time 41 min
[8] = Supplementary Fig 10a, time 47 min
[9] = Supplementary Fig 10a, time 53 min
[10] = Supplementary Fig 10a, time 59 min
[11] = Supplementary Fig 10a, time 65 min
[12] = Supplementary Fig 10a, time 71 min

Chain of BiP NBD (P11021 19-406): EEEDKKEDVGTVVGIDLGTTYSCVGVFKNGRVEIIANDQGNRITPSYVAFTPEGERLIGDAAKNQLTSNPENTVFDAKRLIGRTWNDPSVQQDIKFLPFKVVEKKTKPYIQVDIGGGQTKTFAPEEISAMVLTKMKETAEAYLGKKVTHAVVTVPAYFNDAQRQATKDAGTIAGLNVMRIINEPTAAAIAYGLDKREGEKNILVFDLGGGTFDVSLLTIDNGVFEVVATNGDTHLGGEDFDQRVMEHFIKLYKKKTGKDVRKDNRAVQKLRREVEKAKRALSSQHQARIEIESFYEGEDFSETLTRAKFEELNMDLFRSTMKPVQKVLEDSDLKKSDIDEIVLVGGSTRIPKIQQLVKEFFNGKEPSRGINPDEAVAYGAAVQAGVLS

`O=P(O)(O)O[C@H]1O[C@H](CO)[C@@H](O)[C@H](O)[C@H]1O` [glucose-1-p] showed a species [1] of 1073 µM, a species [2] of 2085 µM and a species [3] of 2925 µM. It also gave a species [4] of 4009 µM, a species [5] of 4805 µM and a species [6] of 5531 µM. The species [7] was 6432 µM, the species [8] was 7245 µM and the species [9] was 8072 µM. The species [10] was 8987 µM, the species [11] was 9725 µM and the species [12] was 10723 µM. For the same compound, the species (Supplementary Fig 10c, time 5 min) was 690 µM, the species (Supplementary Fig 10c, time 11 min) was 1328 µM and the species (Supplementary Fig 10c, time 17 min) was 1777 µM. For the same compound, the species (Supplementary Fig 10c, time 23 min) was 2409 µM, the species (Supplementary Fig 10c, time 29 min) was 2838 µM and the species (Supplementary Fig 10c, time 35 min) was 3243 µM. The species (Supplementary Fig 10c, time 41 min) was 3518 µM, the species (Supplementary Fig 10c, time 47 min) was 3730 µM and the species (Supplementary Fig 10c, time 53 min) was 3950 µM.

For `CC(=O)C(=O)O` [Pyruvate], the species [1] was 841 µM, the species [2] was 1872 µM and the species [3] was 3013 µM. It also gave a species [4] of 4002 µM, a species [5] of 4950 µM and a species [6] of 5935 µM. For the same compound, the species [7] was 6850 µM, the species [8] was 7775 µM and the species [9] was 8621 µM. For the same compound, the species [10] was 9455 µM, the species [11] was 10281 µM and the species [12] was 11083 µM. For the same compound, the species (Supplementary Fig 10b, time 10 min) was 1011 µM, the species (Supplementary Fig 10b, time 16 min) was 1602 µM and the species (Supplementary Fig 10b, time 22 min) was 2255 µM. The species (Supplementary Fig 10b, time 28 min) was 2820 µM, the species (Supplementary Fig 10b, time 34 min) was 3384 µM and the species (Supplementary Fig 10b, time 40 min) was 3735 µM. For the same compound, the species (Supplementary Fig 10b, time 46 min) was 4207 µM, the species (Supplementary Fig 10b, time 52 min) was 4544 µM and the species (Supplementary Fig 10b, time 58 min) was 4962 µM. It also gave a species (Supplementary Fig 10b, time 64 min) of 5335 µM and a species (Supplementary Fig 10b, time 70 min) of 5727 µM.

From PMC12126525, “Mechanism of ATP hydrolysis in the Hsp70 BiP nucleotide-binding domain” (Nature Communications, 2025)
